Structures can show the parent of a compound that is named as a salt.
target: T1, Nav1.7 (or SCN9A) channel (Homo sapiens, UniProt Q15858); assay: Nav1.7 (hSCN9A) PatchXpress electrophysiology assay; type: cell-based; details: estimated IC50 calculated from single point electrophysiology data; PatchXpress platform; HEK cells stably expressing hSCN9A; held at V1/2 of inactivation; read-out: Nav1.7 EIC50
T1 construct: expressed in transfected cells
Experimental: The ability of the compounds of formula (I) to block the Nav1.7 (or SCN9A) channel were measured using the assay described below.
Human Embryonic Kidney (HEK) cells were transfected with an hSCN9A construct using lipofectamine reagent (Invitrogen), using standard techniques. Cells stably expressing the hSCN9A constructs were identified by their resistance to G-418 (400 μg/ml). Clones were screened for expression using the whole-cell voltage-clamp technique.
HEK cells stably transfected with hSCN9A were maintained in DMEM medium supplemented with 10% heat-inactivated fetal bovine serum and 400 μg/ml G-418 in an incubator at 37° C. with a humidified atmosphere of 10% CO2. For HTS, cells were harvested from flasks by trypsinization and replated in an appropriate multi-well plate (typically 96 or 384 wells/plate) such that confluence would be achieved within 24 hours of plating. For electrophysiological studies, cells were removed from the culture flask by brief trypsinization and re-plated at low density onto glass cover slips. Cells were typically used for electrophysiological experiments within 24 to 72 hours after plating.
Cover slips containing HEK cells expressing hSCN9A were placed in a bath on the stage of an inverted microscope and perfused (approximately 1 ml/minutes) with extracellular solution of the following composition: 138 mM NaCl, 2 mM CaCl2, 5.4 mM KCl, 1 mM MgCl2, 10 mM glucose, and 10 mM HEPES, pH 7.4, with NaOH. […] The osmolarity of the extracellular and intracellular solutions was 300 mOsm/kg and 295 mOsm/kg, respectively. All recordings were made at room temperature (22-24° C.) using AXOPATCH 200B amplifiers and PCLAMP software (Axon Instruments, Burlingame, Calif.).
hSCN9A currents in HEK cells were measured using the whole-cell configuration of the patch-clamp technique (Hamill et al., 1981). Uncompensated series resistance was typically 2 to 5 mega ohms and >85% series resistance compensation was routinely achieved. As a result, voltage errors were negligible and no correction was applied. Current records were acquired at 20 to 50 KHz and filtered at 5 to 10 KHz.
HEK cells stably transfected with hSCN9A were viewed under Hoffman contrast optics and placed in front of an array of flow pipes emitting either control or compound-containing extracellular solutions. All compounds were dissolved in dimethyl sulfoxide to make 10 mM stock solutions, which were then diluted into extracellular solution to attain the final concentrations desired. […] The voltage-dependence of inactivation was determined by applying a series of depolarizing prepulses (8 sec long in 10 mV increments) from a negative holding potential. The voltage was then immediately stepped to 0 mV to assess the magnitude of the sodium current. Currents elicited at 0 mV were plotted as a function of prepulse potential to allow estimation of the voltage at which 50% of the channels were inactivated (midpoint of inactivation or V½). Compounds were tested for their ability to inhibit hSCN9A sodium channels by activating the channel with a 20 msec voltage step to 0 mV following an 8 second conditioning prepulse to the empirically determined V½. Compound effect (% inhibition) was determined by difference in current amplitude before and after application of test compounds. For ease of comparison, “estimated IC-50” (EIC50) values were calculated from single point electrophysiology data by the following equation, (tested concentration, uM)×(100-% inhibition/% inhibition). Inhibition values <20% and >80% were excluded from the calculation.
Electrophysiological assays were conducted with PatchXpress 7000 hardware and associated software (Molecular Devices Corp). All assay buffers and solutions were identical to those used in conventional whole-cell voltage clamp experiments described above. hSCN9A cells were grown as above to 50%-80% confluency and harvested by trypsinization. […]

T1 sequence (Q15858 whole entry): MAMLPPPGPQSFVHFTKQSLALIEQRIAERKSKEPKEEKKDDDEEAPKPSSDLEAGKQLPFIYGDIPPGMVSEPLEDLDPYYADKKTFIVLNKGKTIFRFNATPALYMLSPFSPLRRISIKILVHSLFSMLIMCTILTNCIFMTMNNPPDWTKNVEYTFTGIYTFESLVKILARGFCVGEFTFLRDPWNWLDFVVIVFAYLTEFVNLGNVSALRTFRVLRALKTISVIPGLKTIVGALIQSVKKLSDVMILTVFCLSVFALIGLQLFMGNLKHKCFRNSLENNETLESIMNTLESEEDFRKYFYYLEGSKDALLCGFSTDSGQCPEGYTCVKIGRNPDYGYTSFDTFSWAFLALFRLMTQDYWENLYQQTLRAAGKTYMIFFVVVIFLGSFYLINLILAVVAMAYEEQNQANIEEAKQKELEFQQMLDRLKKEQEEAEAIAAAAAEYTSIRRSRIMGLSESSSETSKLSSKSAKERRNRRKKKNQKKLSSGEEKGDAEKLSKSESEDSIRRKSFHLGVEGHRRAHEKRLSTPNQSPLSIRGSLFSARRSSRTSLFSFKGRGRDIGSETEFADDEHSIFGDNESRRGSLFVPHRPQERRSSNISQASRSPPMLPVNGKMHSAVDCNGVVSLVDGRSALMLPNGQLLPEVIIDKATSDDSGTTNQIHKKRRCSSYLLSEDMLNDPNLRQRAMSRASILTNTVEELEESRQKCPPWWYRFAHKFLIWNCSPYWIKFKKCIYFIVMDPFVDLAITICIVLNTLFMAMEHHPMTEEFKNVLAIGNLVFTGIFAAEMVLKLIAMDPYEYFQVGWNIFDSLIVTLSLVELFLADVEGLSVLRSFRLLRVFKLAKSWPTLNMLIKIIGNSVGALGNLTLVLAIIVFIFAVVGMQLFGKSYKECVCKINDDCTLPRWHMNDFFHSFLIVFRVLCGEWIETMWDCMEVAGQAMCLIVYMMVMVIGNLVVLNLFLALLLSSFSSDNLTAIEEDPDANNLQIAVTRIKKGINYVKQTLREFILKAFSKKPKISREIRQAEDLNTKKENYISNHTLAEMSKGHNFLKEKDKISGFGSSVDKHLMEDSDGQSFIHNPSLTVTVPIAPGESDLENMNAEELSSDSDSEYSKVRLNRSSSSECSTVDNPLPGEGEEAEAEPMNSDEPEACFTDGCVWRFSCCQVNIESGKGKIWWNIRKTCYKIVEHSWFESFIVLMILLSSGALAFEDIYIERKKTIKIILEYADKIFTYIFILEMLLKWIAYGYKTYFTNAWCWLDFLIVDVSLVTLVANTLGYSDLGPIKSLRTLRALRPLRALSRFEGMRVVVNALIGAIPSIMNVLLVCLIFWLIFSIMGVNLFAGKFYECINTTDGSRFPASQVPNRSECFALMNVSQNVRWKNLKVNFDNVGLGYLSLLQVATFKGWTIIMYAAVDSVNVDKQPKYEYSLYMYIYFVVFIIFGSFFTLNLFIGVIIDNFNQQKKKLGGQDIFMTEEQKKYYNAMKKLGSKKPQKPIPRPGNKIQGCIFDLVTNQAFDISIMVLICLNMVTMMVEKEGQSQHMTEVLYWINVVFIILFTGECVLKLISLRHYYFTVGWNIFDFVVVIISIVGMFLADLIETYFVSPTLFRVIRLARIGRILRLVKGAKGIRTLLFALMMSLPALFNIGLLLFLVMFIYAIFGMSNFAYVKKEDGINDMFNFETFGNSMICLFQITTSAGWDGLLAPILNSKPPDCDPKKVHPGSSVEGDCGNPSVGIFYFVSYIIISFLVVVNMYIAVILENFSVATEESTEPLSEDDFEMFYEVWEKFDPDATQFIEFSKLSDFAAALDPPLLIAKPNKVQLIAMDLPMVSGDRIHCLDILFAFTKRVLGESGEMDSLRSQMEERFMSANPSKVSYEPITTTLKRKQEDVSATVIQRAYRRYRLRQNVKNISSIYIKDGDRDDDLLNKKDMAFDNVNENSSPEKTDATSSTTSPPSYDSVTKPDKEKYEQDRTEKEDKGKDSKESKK

IC50 | SMILES
840 nM | N#Cc1cc(S(=O)(=O)Nc2ncns2)ccc1Sc1cccc(C(F)(F)F)c1 [Example 13, 3-cyano-N-1,2,4-thiadiazol-5-yl-4-{[3-(trifluoromethyl)phenyl]thio}benzenesulfonamide]
320 nM | COc1ccccc1Sc1ccc(S(=O)(=O)Nc2ncns2)cc1C#N [Example 12, 3-cyano-4-[(2-methoxyphenyl)thio]-N-1,2,4-thiadiazol-5-ylbenzenesulfonamide]
190 nM | N#Cc1cc(S(=O)(=O)Nc2ncns2)ccc1Sc1ccc(C(F)(F)F)cc1 [Example 14, 3-cyano-N-1,2,4-thiadiazol-5-yl-4-{[4-(trifluoromethyl)phenyl]thio}benzenesulfonamide]
920 nM | N#Cc1cc(S(=O)(=O)Nc2ncns2)ccc1Sc1ccccc1F [Example 15, 3-Cyano-4-[(2-fluorophenyl)thio]-N-1,2,4-thiadiazol-5-ylbenzenesulfonamide]
> 3000 nM | COc1ccc(Sc2ccc(S(=O)(=O)Nc3ncns3)cc2C#N)cc1 [Example 11, 3-cyano-4-[(4-methoxyphenyl)thio]-N-1,2,4-thiadiazol-5-ylbenzenesulfonamide]
2200 nM | N#Cc1cc(S(=O)(=O)Nc2ncns2)ccc1Sc1ccc(F)c(F)c1 [Example 17, 3-Cyano-4-[(3,4-difluorophenyl)thio]-N-1,2,4-thiadiazol-5-ylbenzenesulfonamide]
930 nM | N#Cc1cc(S(=O)(=O)Nc2ncns2)ccc1Sc1ccccc1C(F)(F)F [Example 16, 3-Cyano-N-1,2,4-thiadiazol-5-yl-4-{[2-(trifluoromethyl)phenyl]thio}benzenesulfonamide]
1000 nM | COc1cccc(Sc2ccc(S(=O)(=O)Nc3ncns3)cc2C#N)c1 [Example 3, 3-Cyano-4-[(3-methoxyphenyl)thio]-N-1,2,4-thiadiazol-5-ylbenzenesulfonamide]

The next lines start with the compound.

SMILES | IC50
O=S(=O)(Nc1nncs1)c1cc(Cl)c(Sc2ccc(C(F)(F)F)cc2)cc1F [Example 10, 5-chloro-2-fluoro-N-1,3,4-thiadiazol-2-yl-4-{[4-(trifluoromethyl)phenyl]thio}benzenesulfonamide] | 5200 nM
O=S(=O)(Nc1nncs1)c1cc(Cl)c(Sc2cccc(C(F)(F)F)c2)cc1F [Example 1, 5-Chloro-2-fluoro-N-1,3,4-thiadiazol-2-yl-4-{[3-(trifluoromethyl)phenyl]thio}benzenesulfonamide] | 930 nM
COc1ccccc1Sc1cc(F)c(S(=O)(=O)Nc2nncs2)cc1Cl [Example 8, 5-chloro-2-fluoro-4-[(2-methoxyphenyl)thio]-N-1,3,4-thiadiazol-2-ylbenzenesulfonamide] | 250 nM
N#Cc1cc(S(=O)(=O)Nc2ncns2)ccc1Cc1ccc(C(F)(F)F)cc1-c1ccnnc1 [Example 22, 3-Cyano-4-[2-pyridazin-4-yl-4-(trifluoromethyl)benzyl]-N-1,2,4-thiadiazol-5-ylbenzenesulfonamide] | 140 nM
O=S(=O)(Nc1nncs1)c1cc(Cl)c(Sc2ccc(F)c(F)c2)cc1F [Example 9, 5-chloro-4-[(3,4-difluorophenyl)thio]-2-fluoro-N-1,3,4-thiadiazol-2-ylbenzenesulfonamide] | 2300 nM
Nc1cc(-c2cc(C(F)(F)F)ccc2Sc2cc(F)c(S(=O)(=O)Nc3nncs3)cc2Cl)ccn1 [Example 20, 4-{[2-(2-Aminopyridin-4-yl)-4-(trifluoromethyl)phenyl]thio}-5-chloro-2-fluoro-N-1,3,4-thiadiazol-2-ylbenzenesulfonamide hydrochloride] | 33 nM
O=S(=O)(Nc1nncs1)c1cc(Cl)c(Sc2ccccc2F)cc1F [Example 7, 5-chloro-2-fluoro-4-[(2-fluorophenyl)thio]-N-1,3,4-thiadiazol-2-ylbenzenesulfonamide] | 3700 nM
Nc1cc(-c2cc(C(F)(F)F)ccc2Sc2cc(F)c(S(=O)(=O)Nc3ncccn3)cc2Cl)ccn1 [Example 24, 4-{[2-(2-Aminopyridin-4-yl)-4-(trifluoromethyl)phenyl]thio}-5-chloro-2-fluoro-N-pyrimidin-2-ylbenzenesulfonamide] | 72 nM
O=S(=O)(Nc1nncs1)c1cc(Cl)c(Sc2cccc(F)c2)cc1F [Example 6, 5-chloro-2-fluoro-4-[(3-fluorophenyl)thio]-N-1,3,4-thiadiazol-2-ylbenzenesulfonamide] | 3300 nM
N#Cc1cc(S(=O)(=O)Nc2ncns2)ccc1Sc1ccc(C(F)(F)F)cc1-c1ccnnc1 [Example 18, 3-Cyano-4-{[2-pyridazin-4-yl-4-(trifluoromethyl)phenyl]thio}-N-1,2,4-thiadiazol-5-ylbenzenesulfonamide] | 70 nM
O=S(=O)(Nc1nncs1)c1cc(Cl)c(Sc2ccc(C(F)(F)F)cc2-c2ccnnc2)cc1F [Example 19, 5-Chloro-2-fluoro-4-{[2-pyridazin-4-yl-4-(trifluoromethyl)phenyl]thio}-N-1,3,4-thiadiazol-2-ylbenzenesulfonamide] | 45 nM
COc1cccc(Sc2cc(F)c(S(=O)(=O)Nc3nncs3)cc2Cl)c1 [Example 4, 5-chloro-2-fluoro-4-[(3-methoxyphenyl)thio]-N-1,3,4-thiadiazol-2-ylbenzenesulfonamide] | 1900 nM
O=S(=O)(Nc1nncs1)c1cc(Cl)c(Sc2ccccc2C(F)(F)F)cc1F [Example 5, 5-chloro-2-fluoro-N-1,3,4-thiadiazol-2-yl-4-{[2-(trifluoromethyl)phenyl]thio}benzenesulfonamide] | 5080 nM
COc1ccc(Sc2cc(F)c(S(=O)(=O)Nc3nncs3)cc2Cl)cc1 [Example 2, 5-Chloro-2-fluoro-4-[(4-methoxyphenyl)thio]-N-1,3,4-thiadiazol-2-ylbenzenesulfonamide] | 2100 nM
COc1cc(C(F)(F)F)ccc1Cc1ccc(S(=O)(=O)Nc2ncns2)cc1C#N [Example 21, 3-Cyano-4-[2-methoxy-4-(trifluoromethyl)benzyl]-N-1,2,4-thiadiazol-5-ylbenzenesulfonamide] | 5.8 nM

— patent US9096558B2, “N-sulfonylbenzamide compounds” (Pfizer Limited, priority 2010, dated 2015)
